Data on 21 compounds can be found in article PMC6801405, “Discovery of 3-Arylquinoxaline Derivatives as Potential Anti-Dengue Virus Agents” (International Journal of Molecular Sciences, 2019).

In series [1] the test system is DENV2. As to the kind of experiment: microbe, parasite or virus in culture. It is filed as cell-based, dengue virus. Conditions: for SI (selectivity index, CC50/EC50): CC50 Huh-7 / EC50 DENV; for inhibition at 1 µM / inhibition at 10 µM / EC50: Dengue virus; for inhibition at 1 µM / inhibition at 10 µM: DENV2, 72 h; for inhibition at 1 µM / inhibition at 10 µM / DENV2 % Inhibition at 10 μM: Huh-7-DV-Fluc cells, three days; for inhibition at 10 µM / anti-DENV activity in words / DENV2 % Inhibition at 10 μM: 10 μM; for anti-DENV activity in words: >32% inhibition of DENV-2 at 10 μM considered as active.
Procedure: Anti-DENV activities were determined by firefly luciferase activity.
Huh-7-DV-Fluc cells were seeded in 24-well plates at a density of 2 × 10^4 cells per well, and treated with the 3-arylquinoxaline compounds at two concentrations (1 and 10 μM) or 0.1% DMSO as control. After three days of incubation, the luciferase activity assay was performed using the Bright-Glo Luciferase assay system (Promega, Madison, WI, USA) according to the manufacturer’s instructions.

Series [2] in a line: Cytotoxicity assay (XTT method). It is filed as cell-based, Human. Conditions: human, mean ± SD; for viability at 72 h, 20 µM / viability at 72 h, 200 µM: Huh-7 cells, XTT; for viability at 72 h, 20 µM: read-out: Huh-7 Cell % viability at 20 μM; for viability at 72 h, 200 µM: read-out: Huh-7 Cell % viability at 200 μM; for CC50 at 72 h: uninfected Huh-7 cells, read-out: CC50 (concentration causing a 50% growth inhibition of uninfected Huh-7 cells). The protocol: For cytotoxicity tests, run in parallel with antiviral assays, plates at an initial density of 5 × 10^3 cells/well were treated with or without serial dilutions of test compounds. Cell viability was determined after 72 h at 37 °C in a humidified CO2 (5%) atmosphere by the (2,3-bis[2-methyloxy-4-nitro-5-sulfophenyl]-2H-tetrazolium-5-carboxanilide) (XTT) method.

Setting [3] is: DENV2, DENV replication, mean ± SD, read-out: EC50 (concentration resulting in a 50% inhibition in virus production).

Each structure is given as a SMILES string. Like-named read-outs stand apart in the source and are kept apart here.

With `Oc1ccc(Cc2nc3ccccc3nc2-c2ccc(O)cc2)cc1`, the melting point is 184.8 to 185.9 °C.
For `COc1ccc(-c2cc3ccccc3nc2C(O)c2ccccc2)cc1` (stereo not shown) [Compound 3, 2-(hydroxyphenylmethyl)-3-(4-methoxyphenyl)quinoline, reference compound], the “SI (selectivity index, CC50/EC50)” value in series [1] stood at 11.07. In series [1] (mean ± SD), this compound yielded an inhibition at 1 µM of 12.4 ± 2.67% and an inhibition at 10 µM of 50.1 ± 3.47%. For the same compound, in series [1] (setting [3]), the EC50 was 12.6 ± 2.16 µM. Moreover, in series [2], the viability at 72 h, 20 µM turned out to be 90.3 ± 2.62%; the viability at 72 h, 200 µM stood at 21.9 ± 3.55%; the CC50 at 72 h was found to be 139 ± 2.32 µM.
In the case of `O=C(c1ccc(O)cc1)c1nc2ccccc2cc1-c1ccc(O)cc1` [Compound 4, 2-(4-hydroxybenzoyl)-3-(4-hydroxyphenyl)quinoline, reference compound], the “SI (selectivity index, CC50/EC50)” value in series [1] was found to be 12.44. For the same compound, in series [1] (mean ± SD), the inhibition at 1 µM stood at 11.2 ± 2.31% and the inhibition at 10 µM is 41.2 ± 2.88%. In addition, the EC50 in series [1] (setting [3]) came out at 13.2 ± 1.23 µM. In addition, in series [2], the viability at 72 h, 20 µM came out at 96.6 ± 8.78%; the viability at 72 h, 200 µM worked out at 41.4 ± 5.71%; the CC50 at 72 h amounted to 164 ± 2.32 µM.
For `OC(c1ccccc1)c1nc2ccccc2nc1-c1ccccc1` (stereo not shown) [Compound 15a, Phenyl(3-phenylquinoxalin-2-yl)methanol], the melting point lay within 146 to 147 °C. Further, the “anti-DENV activity in words” value in series [1] was “inactive”. In addition, in series [1] (mean ± SD), 1 µM produced 2.13 ± 1.12% inhibition and the inhibition at 10 µM was determined as 5.31 ± 1.73%. Moreover, in series [2], the viability at 72 h, 20 µM stood at 105 ± 5.66% and the viability at 72 h, 200 µM came to 59.9 ± 8.33%.
In the case of `COc1ccc(C(O)c2nc3ccccc3nc2-c2ccccc2)cc1` (stereo not shown) [Compound 15b, (4-Methoxyphenyl)(3-phenylquinoxalin-2-yl)methanol], the melting point was 166 to 168.6 °C. In addition, the “anti-DENV activity in words” value in series [1] is recorded as “moderately active”. Further, in series [1] (mean ± SD), the “DENV2 % Inhibition at 10 μM” value is given as 48.67 ± 4.71%, the inhibition at 1 µM is 24.3 ± 2.51% and the inhibition at 10 µM was found to be 48%. Also, in series [2], the viability at 72 h, 20 µM worked out at 103 ± 1.79% and the viability at 72 h, 200 µM stood at 61.4 ± 2.67%.
The compound `OC(c1ccccc1)c1nc2cc(Cl)c(Cl)cc2nc1-c1ccccc1` (stereo not shown) [Compound 16a, (6,7-Dichloro-3-phenylquinoxalin-2-yl)(phenyl)methanol] registered a melting point of 136.4 to 136.9 °C. Moreover, in series [1] (mean ± SD), 1 µM produced 1.97 ± 0.72% inhibition and testing at 10 µM gave an inhibition of 6.42 ± 2.97%. Besides, in series [2], the viability at 72 h, 20 µM was determined as 108 ± 8.91% and the viability at 72 h, 200 µM was 20.6 ± 5.37%.
Consider `COc1ccc(C(O)c2nc3cc(Cl)c(Cl)cc3nc2-c2ccccc2)cc1` (stereo not shown) [Compound 16b, (6,7-Dichloro-3-phenylquinoxalin-2-yl)(4-methoxyphenyl)methanol], for which the melting point was in the range of 157.2 to 157.6 °C. For the same compound, the “anti-DENV activity in words” value in series [1] is “inactive”. For the same compound, in series [1] (mean ± SD), the “DENV2 % Inhibition at 10 μM” value is 9.46 ± 2.88%, the inhibition at 1 µM turned out to be 2.41 ± 1.48% and the inhibition at 10 µM is 9%. Also, in series [2], the viability at 72 h, 20 µM is 104 ± 4.18% and the viability at 72 h, 200 µM stood at 73 ± 9.05%.
Consider `OC(c1ccccc1)c1nc2ccccc2nc1-c1ccc(F)cc1` (stereo not shown) [Compound 17a, [3-(4-Fluorophenyl)quinoxalin-2-yl](phenyl)methanol], for which the melting point was 157.4 to 158 °C. Further, in series [1] (mean ± SD), the inhibition at 1 µM is 2.58 ± 0.85% and the inhibition at 10 µM amounted to 4.78 ± 1.93%. For the same compound, in series [2], the viability at 72 h, 20 µM is 96.3 ± 3.52% and the viability at 72 h, 200 µM was 73.3 ± 6.57%.
Regarding `COc1ccc(C(O)c2nc3ccccc3nc2-c2ccc(F)cc2)cc1` (stereo not shown) [Compound 17b, [3-(4-Fluorophenyl)quinoxalin-2-yl](4-methoxyphenyl)methanol], the melting point was 173 to 174.7 °C. For the same compound, in series [1] (mean ± SD), the “DENV2 % Inhibition at 10 μM” value is recorded as 22.89 ± 4.54%, 1 µM produced 19.2 ± 3.5% inhibition and at 10 µM the inhibition was 22%. Further, in series [2], the viability at 72 h, 20 µM came to 102 ± 1.98% and the viability at 72 h, 200 µM stood at 101 ± 1.27%.
`OC(c1ccccc1)c1nc2cc(Cl)c(Cl)cc2nc1-c1ccc(F)cc1` (stereo not shown) [Compound 18a, [6,7-Dichloro-3-(4-fluorophenyl)quinoxalin-2-yl](phenyl)methanol] registered a melting point of 150 to 150.2 °C. Moreover, in series [1] (mean ± SD), testing at 1 µM gave an inhibition of 3.41 ± 1.11% and the inhibition at 10 µM is 6.74 ± 1.57%. Further, in series [2], the viability at 72 h, 20 µM is 102 ± 3.96% and the viability at 72 h, 200 µM worked out at 21.5 ± 1.6%.
`COc1ccc(-c2nc3ccccc3nc2C(O)c2ccc(OC)cc2)cc1` (stereo not shown) [Compound 19b, (4-Methoxyphenyl)[3-(4-methoxyphenyl)quinoxalin-2-yl]methanol] showed a melting point of 132.4 to 136 °C. In series [1] (mean ± SD), this compound had an inhibition at 1 µM of 35.5 ± 4.82% and an inhibition at 10 µM of 47.7 ± 5.41%. Further, in series [2], the viability at 72 h, 20 µM stood at 96.4 ± 1.24% and the viability at 72 h, 200 µM is 21.3 ± 1.55%.
`COc1ccc(-c2nc3cc(Cl)c(Cl)cc3nc2C(O)c2ccccc2)cc1` (stereo not shown) [Compound 20a, [6,7-Dichloro-3-(4-methoxyphenyl)quinoxalin-2-yl](phenyl)methanol]: the melting point was 156.8 to 157.1 °C. Also, in series [1] (mean ± SD), the “DENV2 % Inhibition at 10 μM” value is reported as 58.71 ± 2.86%, testing at 1 µM gave an inhibition of 16.3 ± 3.42% and the inhibition at 10 µM is above 50%. Also, the “SI (selectivity index, CC50/EC50)” value in series [1] was above 35.21. The EC50 in series [1] (DENV2, read-out: EC50 (concentration resulting in a 50% inhibition in virus production)) is 5.68 ± 0.81 µM. For the same compound, in series [2], the viability at 72 h, 20 µM is 99.4 ± 3.31%; the viability at 72 h, 200 µM was determined as 27.1 ± 1.24%; the CC50 at 72 h was above 200 µM.
Take `COc1ccc(-c2nc3cc(Cl)c(Cl)cc3nc2C(O)c2ccc(OC)cc2)cc1` (stereo not shown) [Compound 20b, [6,7-Dichloro-3-(4-methoxyphenyl)quinoxalin-2-yl](4-methoxyphenyl)methanol]: the melting point was in the range of 144.1 to 144.5 °C. Besides, the “anti-DENV activity in words” value in series [1] was “inactive”. In series [1] (mean ± SD), this compound showed an inhibition at 1 µM of 2.75 ± 1.69% and an inhibition at 10 µM of 4.39 ± 1.52%. In series [2], the viability at 72 h, 20 µM stood at 95.5 ± 3.96% and the viability at 72 h, 200 µM was 34.2 ± 4.97%.
In the case of `O=C(c1ccccc1)c1nc2ccccc2nc1-c1ccccc1` [Compound 21a, Phenyl(3-phenylquinoxalin-2-yl)methanone], the “anti-DENV activity in words” value in series [1] is “inactive”. In series [1] (mean ± SD), this compound returned an inhibition at 1 µM of 2.76 ± 1.55% and an inhibition at 10 µM of 7.98 ± 2.14%. Also, in series [2], the viability at 72 h, 20 µM is 107 ± 2.3% and the viability at 72 h, 200 µM worked out at 79.5 ± 7.07%.
Regarding `O=C(c1ccccc1)c1nc2cc(Cl)c(Cl)cc2nc1-c1ccccc1` [Compound 22a, (6,7-Dichloro-3-phenylquinoxalin-2-yl)(phenyl)methanone], the melting point lay in the range of 154.3 to 156.8 °C. Further, in series [1] (mean ± SD), the inhibition at 1 µM came out at 12.7 ± 3.91% and the inhibition at 10 µM worked out at 19.7 ± 4.17%. For the same compound, in series [2], the viability at 72 h, 20 µM was 109 ± 1.36% and the viability at 72 h, 200 µM was 103 ± 2.67%.
The compound `COc1ccc(C(=O)c2nc3cc(Cl)c(Cl)cc3nc2-c2ccccc2)cc1` [Compound 22b, (6,7-Dichloro-3-phenylquinoxalin-2-yl)(4-methoxyphenyl)methanone] had a melting point of 171.9 to 172.3 °C. In series [1] (mean ± SD), this compound yielded an inhibition at 1 µM of 5.19 ± 2.78% and an inhibition at 10 µM of 24.7 ± 1.89%. Also, in series [2], the viability at 72 h, 20 µM is 103 ± 8.3% and the viability at 72 h, 200 µM was determined as 92 ± 3.08%.
Compound `O=C(c1ccccc1)c1nc2ccccc2nc1-c1ccc(F)cc1` [Compound 23a, [3-(4-Fluorophenyl)quinoxalin-2-yl](phenyl)methanone] showed a melting point of 94.1 to 96.6 °C. Besides, in series [1] (mean ± SD), the inhibition at 1 µM was 34.2 ± 5.12% and 10 µM produced 40.8 ± 2.58% inhibition. Besides, in series [2], the viability at 72 h, 20 µM was 98.6 ± 5.68% and the viability at 72 h, 200 µM is 87.6 ± 5.75%.
On to `COc1ccc(C(=O)c2nc3ccccc3nc2-c2ccc(F)cc2)cc1` [Compound 23b, [3-(4-Fluorophenyl)quinoxalin-2-yl](4-methoxyphenyl)methanone], for which the melting point lay in the range of 147.6 to 147.9 °C. Moreover, in series [1] (mean ± SD), the inhibition at 1 µM was found to be 16.4 ± 3.11% and 10 µM produced 33.6 ± 4.21% inhibition. For the same compound, in series [2], the viability at 72 h, 20 µM turned out to be 104 ± 1.85% and the viability at 72 h, 200 µM was 103.3 ± 1.03%.
As for `O=C(c1ccccc1)c1nc2cc(Cl)c(Cl)cc2nc1-c1ccc(F)cc1` [Compound 24a, (6,7-Dichloro-3-(4-fluorophenyl)quinoxalin-2-yl)(phenyl)methanone], the melting point fell in the range of 184.3 to 186.4 °C. In series [1] (mean ± SD), this compound returned an inhibition at 1 µM of 2.54 ± 1.21% and an inhibition at 10 µM of 23.5 ± 3.71%. Also, in series [2], the viability at 72 h, 20 µM amounted to 106 ± 2.12% and the viability at 72 h, 200 µM came out at 91.9 ± 2.83%.
`COc1ccc(-c2nc3ccccc3nc2C(=O)c2ccccc2)cc1` [Compound 25a, [3-(4-Methoxyphenyl)quinoxalin-2-yl](phenyl)methanone] displayed a melting point of 93.9 to 98.2 °C. In series [1] (mean ± SD), this compound gave an inhibition at 1 µM of 40.4 ± 2.22% and an inhibition at 10 µM of 47.5 ± 3.51%. Moreover, in series [2], the viability at 72 h, 20 µM is 101 ± 2.39% and the viability at 72 h, 200 µM stood at 100 ± 4.59%.
As to `O=C(c1ccc(O)cc1)c1nc2ccccc2nc1-c1ccc(O)cc1` [Compound 29, (4-Hydroxyphenyl)(3-(4-hydroxyphenyl)quinoxalin-2-yl)methanone], in series [1] (mean ± SD), the inhibition at 1 µM turned out to be 2.36 ± 1.11% and at 10 µM the inhibition was 4.25 ± 1.39%. In series [2], the viability at 72 h, 20 µM was 104 ± 2.91% and the viability at 72 h, 200 µM stood at 51.9 ± 1.62%.
